Values quoted from earlier work in US8946301B2, “Targeting of T-lymphocytes to treat amyotrophic lateral sclerosis” (ALS Therapy Development Institute, priority 2011, dated 2015).
Counter-ions that a name gives are not always drawn.

Legend:
[1] = cited from earlier work
[2] = tested on: peripheral blood mononuclear cells (lymphocytes and monocytes); details: published reports; cited from earlier work
patients with ALS = details: Borras-Blasco et al. 1998; cited from earlier work

CCCCCCCCc1ccc(CCC(N)(CO)CO)cc1 [Fingolimod hydrochloride]
solubility in 0.9% saline ([1]; 0.9% saline): soluble
solubility in aqueous buffers at or above pH 3.0 ([1]; aqueous buffers, pH at or above 3.0): very slightly soluble or practically insoluble
solubility in aqueous buffers at or below pH 2.0 ([1]; aqueous buffers, pH at or below 2.0): soluble
solubility in water ([1]; water): > 10%

NC(CO)(CO)CCc1ccc(Sc2cccc(OCc3ccccc3)c2)cc1Cl [KRP-203, 2-amino-2-[2-[2-chloro-4-(3-phenylmethoxyphenyl)sulfanylphenyl]ethyl]propane-1,3-diol]
lymphocyte homing into peripheral lymph nodes [2]: enhanced
number of granulocytes [2]: not
number of peripheral blood mononuclear cells (lymphocytes and monocytes) [2]: reduce the number

Nc1nc2ccc(OC(F)(F)F)cc2s1 [Riluzole™]
muscular strength of ALS patients (patients with ALS): does not appear to provide an improvement of muscular strength
